# Results: PubChem BioAssay (NCI)
#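 Five concentrations, 48 hours, 96-well plates. GI50: concentration for 50% inhibition of growth. The concentration for full growth arrest is given as TGI.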
# What was measured:
# Test in all cases: NCI-60 cell line screen, 48 h
# OVCAR-5 ovarian = system: OVCAR-5 ovarian
# CCRF-CEM leukemia = system: CCRF-CEM leukemia
# UO-31 renal = system: UO-31 renal
# SN12C renal = system: SN12C renal
# OVCAR-3 ovarian = system: OVCAR-3 ovarian
# HOP-92 NSCLC = system: HOP-92 NSCLC
# T-47D breast = system: T-47D breast
# CAKI-1 renal = system: CAKI-1 renal
# BT-549 breast = system: BT-549 breast
# HS 578T breast = system: HS 578T breast
# HCC-2998 colon = system: HCC-2998 colon
# RPMI-8226 leukemia = system: RPMI-8226 leukemia
# SNB-19 CNS = system: SNB-19 CNS
# SF-539 CNS = system: SF-539 CNS
# HCT-116 colon = system: HCT-116 colon
# KM12 colon = system: KM12 colon
# UACC-257 melanoma = system: UACC-257 melanoma
# MOLT-4 leukemia = system: MOLT-4 leukemia
# NCI-H226 lung = system: NCI-H226 lung
# SK-MEL-5 melanoma = system: SK-MEL-5 melanoma
# NCI/ADR-RES ovarian = system: NCI/ADR-RES ovarian
# SK-OV-3 ovarian = system: SK-OV-3 ovarian
# SK-MEL-28 melanoma = system: SK-MEL-28 melanoma
# SF-295 CNS = system: SF-295 CNS
# HOP-62 NSCLC = system: HOP-62 NSCLC
# HCT-15 colon = system: HCT-15 colon
# RXF 393 renal = system: RXF 393 renal
# SNB-75 CNS = system: SNB-75 CNS
# ACHN renal = system: ACHN renal
# MCF7 breast = system: MCF7 breast
# OVCAR-4 ovarian = system: OVCAR-4 ovarian
# MALME-3M melanoma = system: MALME-3M melanoma
# SF-268 CNS = system: SF-268 CNS
# NCI-H23 lung = system: NCI-H23 lung
# HT29 colon = system: HT29 colon
# UACC-62 melanoma = system: UACC-62 melanoma
# IGROV1 ovarian = system: IGROV1 ovarian
# DU-145 prostate = system: DU-145 prostate
# A498 renal = system: A498 renal
# TK-10 renal = system: TK-10 renal
# U251 CNS = system: U251 CNS
# COLO 205 colon = system: COLO 205 colon
# MDA-MB-231 breast = system: MDA-MB-231 breast
# EKVX NSCLC = system: EKVX NSCLC
# 786-0 renal = system: 786-0 renal
# NCI-H522 lung = system: NCI-H522 lung
# PC-3 prostate = system: PC-3 prostate
# SK-MEL-2 melanoma = system: SK-MEL-2 melanoma
# M14 melanoma = system: M14 melanoma
# K-562 leukemia = system: K-562 leukemia
# HL-60(TB) leukemia = system: HL-60(TB) leukemia
# SW-620 colon = system: SW-620 colon
# A549 NSCLC = system: A549 NSCLC
# OVCAR-8 ovarian = system: OVCAR-8 ovarian
# NCI-H460 lung = system: NCI-H460 lung
# SR leukemia = system: SR leukemia
# MDA-MB-435 = system: MDA-MB-435
smiles,measurement,setting,value
COc1cc(/C=C2\CN(S(=O)(=O)c3ccc(C)cc3)C/C(=C\c3cc(CN4CCOCC4)c(O)c(OC)c3)C2=O)cc(CN2CCOCC2)c1O,GI50,OVCAR-5 ovarian,> 100 µM
same,TGI,OVCAR-5 ovarian,> 100 µM
same,GI50,CCRF-CEM leukemia,0.513 µM
same,TGI,CCRF-CEM leukemia,> 100 µM
same,GI50,UO-31 renal,20.4 µM
same,TGI,UO-31 renal,> 100 µM
same,GI50,SN12C renal,0.524 µM
same,TGI,SN12C renal,15.5 µM
same,GI50,OVCAR-3 ovarian,0.611 µM
same,TGI,OVCAR-3 ovarian,> 100 µM
same,GI50,HOP-92 NSCLC,17.6 µM
same,TGI,HOP-92 NSCLC,71.8 µM
same,GI50,T-47D breast,51.7 µM
same,TGI,T-47D breast,> 100 µM
same,GI50,CAKI-1 renal,1.53 µM
same,TGI,CAKI-1 renal,> 100 µM
same,GI50,BT-549 breast,17.6 µM
same,TGI,BT-549 breast,67.2 µM
same,GI50,HS 578T breast,0.721 µM
same,TGI,HS 578T breast,19.8 µM
same,GI50,HCC-2998 colon,2.05 µM
same,TGI,HCC-2998 colon,21.7 µM
same,GI50,RPMI-8226 leukemia,2.34 µM
same,TGI,RPMI-8226 leukemia,> 100 µM
same,GI50,SNB-19 CNS,15.8 µM
same,TGI,SNB-19 CNS,> 100 µM
same,GI50,SF-539 CNS,7.21 µM
same,TGI,SF-539 CNS,33 µM
same,GI50,HCT-116 colon,3.25 µM
same,TGI,HCT-116 colon,> 100 µM
same,GI50,KM12 colon,0.377 µM
same,TGI,KM12 colon,25.5 µM
same,GI50,UACC-257 melanoma,2.06 µM
same,TGI,UACC-257 melanoma,> 100 µM
same,GI50,MOLT-4 leukemia,0.321 µM
same,TGI,MOLT-4 leukemia,> 100 µM
same,GI50,NCI-H226 lung,12.7 µM
same,TGI,NCI-H226 lung,85.8 µM
same,GI50,SK-MEL-5 melanoma,4.15 µM
same,TGI,SK-MEL-5 melanoma,> 100 µM
same,GI50,NCI/ADR-RES ovarian,55 µM
same,TGI,NCI/ADR-RES ovarian,> 100 µM
same,GI50,SK-OV-3 ovarian,7.89 µM
same,TGI,SK-OV-3 ovarian,56.5 µM
same,GI50,SK-MEL-28 melanoma,4.85 µM
same,TGI,SK-MEL-28 melanoma,> 100 µM
same,GI50,SF-295 CNS,12.5 µM
same,TGI,SF-295 CNS,40.2 µM
same,GI50,HOP-62 NSCLC,0.652 µM
same,TGI,HOP-62 NSCLC,38 µM
same,GI50,HCT-15 colon,1.9 µM
same,TGI,HCT-15 colon,> 100 µM
same,GI50,RXF 393 renal,2.81 µM
same,TGI,RXF 393 renal,29.5 µM
same,GI50,SNB-75 CNS,0.527 µM
same,TGI,SNB-75 CNS,19.1 µM
same,GI50,ACHN renal,1.47 µM
same,TGI,ACHN renal,22.5 µM
same,GI50,MCF7 breast,0.394 µM
same,TGI,MCF7 breast,> 100 µM
same,GI50,OVCAR-4 ovarian,4.11 µM
same,TGI,OVCAR-4 ovarian,> 100 µM
same,GI50,MALME-3M melanoma,1.75 µM
same,TGI,MALME-3M melanoma,65.8 µM
same,GI50,SF-268 CNS,0.935 µM
same,TGI,SF-268 CNS,81.2 µM
same,GI50,NCI-H23 lung,3.31 µM
same,TGI,NCI-H23 lung,> 100 µM
same,GI50,HT29 colon,0.346 µM
same,TGI,HT29 colon,> 100 µM
same,GI50,UACC-62 melanoma,0.586 µM
same,TGI,UACC-62 melanoma,16.4 µM
same,GI50,IGROV1 ovarian,1.09 µM
same,TGI,IGROV1 ovarian,22.8 µM
same,GI50,DU-145 prostate,0.928 µM
same,TGI,DU-145 prostate,> 100 µM
same,GI50,A498 renal,12.4 µM
same,TGI,A498 renal,54.4 µM
same,GI50,TK-10 renal,15.4 µM
same,TGI,TK-10 renal,59.8 µM
same,GI50,U251 CNS,0.782 µM
same,TGI,U251 CNS,> 100 µM
same,GI50,COLO 205 colon,1.66 µM
same,TGI,COLO 205 colon,> 100 µM
same,GI50,MDA-MB-231 breast,2.27 µM
same,TGI,MDA-MB-231 breast,92.5 µM
same,GI50,EKVX NSCLC,16.9 µM
same,TGI,EKVX NSCLC,92.5 µM
same,GI50,786-0 renal,17.9 µM
same,TGI,786-0 renal,59.4 µM
same,GI50,NCI-H522 lung,2.34 µM
same,TGI,NCI-H522 lung,32.6 µM
same,GI50,PC-3 prostate,1.24 µM
same,TGI,PC-3 prostate,> 100 µM
same,GI50,SK-MEL-2 melanoma,21.9 µM
same,TGI,SK-MEL-2 melanoma,65.1 µM
same,GI50,M14 melanoma,0.689 µM
same,TGI,M14 melanoma,> 100 µM
same,GI50,K-562 leukemia,0.561 µM
same,TGI,K-562 leukemia,> 100 µM
same,GI50,HL-60(TB) leukemia,0.853 µM
same,TGI,HL-60(TB) leukemia,27.4 µM
same,GI50,SW-620 colon,1.35 µM
same,TGI,SW-620 colon,> 100 µM
same,GI50,A549 NSCLC,13 µM
same,TGI,A549 NSCLC,> 100 µM
same,GI50,OVCAR-8 ovarian,0.323 µM
same,TGI,OVCAR-8 ovarian,> 100 µM
same,GI50,NCI-H460 lung,0.337 µM
same,TGI,NCI-H460 lung,2.52 µM
same,GI50,SR leukemia,0.342 µM
same,TGI,SR leukemia,> 100 µM
CCOC(=O)/C(=N/Nc1ccc(C)cc1)N1C(=S)C=C(C)NN(C)C1=S,TGI,OVCAR-5 ovarian,> 100 µM
same,TGI,CCRF-CEM leukemia,> 100 µM
same,TGI,UO-31 renal,> 100 µM
same,TGI,SN12C renal,> 100 µM
same,TGI,OVCAR-3 ovarian,> 100 µM
same,TGI,HOP-92 NSCLC,> 100 µM
same,TGI,T-47D breast,> 100 µM
same,TGI,CAKI-1 renal,> 100 µM
same,TGI,BT-549 breast,> 100 µM
same,TGI,HS 578T breast,> 100 µM
same,TGI,HCC-2998 colon,> 100 µM
same,TGI,RPMI-8226 leukemia,> 100 µM
same,TGI,SNB-19 CNS,> 100 µM
same,TGI,SF-539 CNS,> 100 µM
same,TGI,HCT-116 colon,> 100 µM
same,TGI,KM12 colon,> 100 µM
same,TGI,UACC-257 melanoma,> 100 µM
same,TGI,MOLT-4 leukemia,> 100 µM
same,TGI,SK-MEL-5 melanoma,> 100 µM
same,TGI,NCI/ADR-RES ovarian,> 100 µM
same,TGI,SK-OV-3 ovarian,> 100 µM
same,TGI,SK-MEL-28 melanoma,> 100 µM
same,TGI,SF-295 CNS,39.3 µM
same,TGI,HCT-15 colon,> 100 µM
same,TGI,RXF 393 renal,83.7 µM
same,TGI,SNB-75 CNS,> 100 µM
same,TGI,ACHN renal,> 100 µM
same,TGI,MCF7 breast,> 100 µM
same,TGI,OVCAR-4 ovarian,> 100 µM
same,TGI,SF-268 CNS,> 100 µM
same,TGI,NCI-H23 lung,> 100 µM
same,TGI,HT29 colon,> 100 µM
same,TGI,UACC-62 melanoma,> 100 µM
same,TGI,IGROV1 ovarian,> 100 µM
same,TGI,DU-145 prostate,> 100 µM
same,TGI,TK-10 renal,> 100 µM
same,TGI,U251 CNS,55.5 µM
same,TGI,COLO 205 colon,> 100 µM
same,TGI,MDA-MB-435,> 100 µM
same,TGI,MDA-MB-231 breast,> 100 µM
same,TGI,EKVX NSCLC,> 100 µM
same,TGI,NCI-H522 lung,> 100 µM
same,TGI,SK-MEL-2 melanoma,> 100 µM
same,TGI,M14 melanoma,> 100 µM
same,TGI,K-562 leukemia,> 100 µM
same,TGI,HL-60(TB) leukemia,> 100 µM
same,TGI,SW-620 colon,> 100 µM
same,TGI,A549 NSCLC,> 100 µM
same,TGI,OVCAR-8 ovarian,> 100 µM
same,TGI,NCI-H460 lung,> 100 µM
same,TGI,SR leukemia,> 100 µM
